Assay results published in patent US20020177120A1, “ASSAYS FOR APOTOSIS MODULATORS” (priority 1999, published 2002).
Entries after “also recorded” stand apart in the source; their conditions may differ. *1 amine or outer side, *2 acyl side, *3 side chain or, on linkers, in order; H or OH if unused. Where a SMILES comes first, the peptide text is derived from it. Bridges are numbered along the chain shown (N, C = ends). Roman numbers before positions name the chains, in order. [ ]: non-standard residue; d: D form. Actinocin(9to1) = Cc1c2oc3c(C)ccc(C(=O)[*:1])c3nc-2c(C(=O)[*:2])c(N)c1=O; NMeV = CN[C@H](C(=O)O)C(C)C; Sar = CNCC(=O)O

Legend:
IMR-32 cells [1] = experiment: Cell death / SYTO 13 cell survival in IMR-32 cells; format: cell-based; details: for programmed cell death as measured by Cell Death Detection: 4-8 hrs. treatment; for cells surviving (SYTO 13 assay): 50 μM etoposide
Method: (§1) Three CNS derived cell lines, IMR-32, NB41A3 and Neuro2A, were initially evaluated for growth and transfection characteristics, inducibility of apoptosis in a large percentage of cells, and a inducible apoptosis protease activity. […] The SYTO 13 cell survival assay and Cell Death Detection ELISA^PLUS (Materials and Methods) were used to optimize conditions for induction of apoptosis. IMR-32 cells were treated with Actinomycin D (ActD), cycloheximide (CHX), etoposide or staurosporin for 4-8 hrs.
SYTO13 Cell Viability Assays: Cells were seeded into 96-well plates, incubated overnight to adhere cells to the plastic, and then treated in quadruplicate for various times with extrinsically applied apoptosis-inducing agents, i.e., staurosporin or etoposide. Cell viability was determined using 5 μM SYTO 13 (Molecular Probes) and/or 5 μg/ml propidium iodide (PI, Molecular Probes). As controls, four wells of untreated cells were stained with SYTO 13 and PI, i.e., to measure the maximum signal (max), and four wells of untreated cells were stained with only PI, i.e., to measure the minimum signal (min). After 30 minutes of incubation at 37° C., fluorescence was assayed in plates using the Cytofluor II plate reader (Perseptive Biosystems) (excitation 485/20 nm; emission 530/30 nm; gain 50). Data was collected as relative fluorescence units (rfu) and averaged for six readings per well. Percent cell survival was calculated as 100×(rfutreatment−rfumin)/(rfumax−rfumin).
(§2) Etoposide-Induced Cell Death and Apoptotic DNA Fragmentation in IMR-32 Cells: Confluent IMR-32 cells were treated with 50 μM etoposide phosphate for 2, 8, 17 or 24 hrs. To evaluate apoptosis cells were either: i) stained with SYTO 13 and assayed for fluorescence using a Cytofluor II plate reader (excitation 485/20 nm, emission 530/30 nm), or ii) nucleosome-associated DNA fragments were detected using the Cell Death Detection ELISA^PLUS (Boehringer Mannheim) according to the manufacturer's instructions.

caspase-3 [2] = experiment: Caspase-3 assay in IMR-32 cells; format: cell-based
Method: as §1
(§3) Caspase-3 Assay: Caspase-3 activity was assayed according to the following protocol. Cells plated and treated as above were washed in 1×PBS and lysed in 1×assay buffer (1 mM DTT, 1% Triton X-100, 0.5% Tween-20 in 1×PBS, pH 7.2). Lysates were combined with fluorogenic substrate, Ac-DEVD-AMC ([…]), ±inhibitor, Ac-DEVD-CHO (10 μM) (Bachem) in 1×assay buffer and incubated in the dark for 1 hr. at room temperature. Fluorescence readings were taken on the Cytofluor II plate reader (excitation 360 nm, emission 460 nm, 6 reads/well, gain 50).
Confluent IMR-32 cells were treated with 100 μM etoposide for 8 hrs. Cell lysates were collected and assayed for caspase-3 activity.

F9-1-13 cells = experiment: Cell-based FRET reporter assay in F9-1-13 (SgAT) cells; set-up: species or system human
Text: Transfection of pcDNA3VH-SgAT and pcDNA3VH-SnAT into U-138 cells (using methods described above) resulted initially in few colonies and FRET signal was lost in many clones during expansion, however, from among the various subclones the F9-1-13 (pcDNA3VH-SgAT transfected; ATCC No. PTA-84) and F10-24-2 (pcDNA3-SnAT transfected) subclones were eventually expanded and shown to express stable FRET signals. As desired, the FRET signal expressed in F9-1-13 decreased in response to both staurosporin and anti-Fas antibody treatment of cells, while the FRET signal expressed by the F10-24-2 control cells, (i.e., lacking a caspase substrate domain), was unaffected following staurosporin or anti-Fas antibody treatment. […] F9-1-13 therefore appeared suitable for microtiter assays, and perhaps use in HTS assays for screening to identify and select modulators of apoptosis.
Studies were initiated to adapt the experimental cell-based FRET assay of EXAMPLE 5 to a format suitable for use in high-throughput screening. First, the assay was scaled down from a 24-well to a 96-well plate format. Cells from three different F9 parental cultures were plated in a black-sided 96-well plates (Costar #3904) at a density of 32,000 cells/well (˜1×10^5 cells/cm^2); allowed to adhere overnight; and then the media was replaced with either 100 μl fresh media containing inducer (5 μM staurosporin in 0.25% DMSO vehicle) or 100 μl containing only vehicle (0.25% DMSO). After an overnight incubation, fluorescence measurements were made to evaluate FRET signal changes. […] The assay therefore appeared to be adaptable to a 96-well format but it was not initially clear how signal might be improved to increase the signal-to-background ratio.
A 96-well FRET assay was evaluated for inter-assay well variability and inter-plate variability. Possible signal drift during measurement of the FRET fluorescence signal was evaluated using one of two different robotics-compatible rapid fluorescence plate readers (SpeedReader or Cytofluor II). After plating at an initial density of about 60,000 cells/well, and overnight culture F9-1-13 cells were treated with 5 μM staurosporin, or vehicle. After an overnight incubation in staurosporin (i.e., 16-24 hrs.), the plates were either washed, or not washed, and then assayed repeatedly over the next 1.5 hours using either of the plate readers. […] However, using the same assay conditions but with anti-Fas antibody as an inducer, different results were recorded. […] The basis for the observed differences in measuring devices is not clear, but may relate to the design of the light source and/or the sensitivity of the detection circuitry in the two different respective fluorescence readers as well as possible different means for optically or digitally subtracting background incident radiation.
Assay Confirmation: The following experiment was performed to validate the ability of the 96-well FRET assay to detect inhibitors of apoptosis: namely, F9-1-13 cells (n=5 wells) were treated with 50-100 μM Z-VAD-fmk (a broad spectrum caspase inhibitor) or vehicle (n=55) in randomized wells of a 96-well plate. All of these wells, and six additional positive control wells (i.e., lacking the inhibitor), were treated with 5 μM staurosporine in 0.25% DMSO vehicle. Six negative control wells were treated with vehicle only (0.25% DMSO). After overnight incubation, FRET signal changes were evaluated as described above.
Three alternatives to staurosporine induction were evaluated: serum withdrawal; c2-ceramide treatment; and induction via engagement of the CD95/Fas receptor with anti-Fas antibody. […] To increase the proportion of adherent cells, poly-D-lysine and 0.1% gelatin were evaluated in anti-Fas antibody treated F9-1-13 cells. […] Anti-Fas antibody was therefore chosen as a preferred inducer of apoptosis for high-throughput screening. […]

caspase-3 [3] = experiment: Caspase-3 activity in F9-1-13 cells; format: cell-based, human; details: 75 μM, 16-24 hours
Method: Three alternatives to staurosporine induction were evaluated: serum withdrawal; c2-ceramide treatment; and induction via engagement of the CD95/Fas receptor with anti-Fas antibody. […] To increase the proportion of adherent cells, poly-D-lysine and 0.1% gelatin were evaluated in anti-Fas antibody treated F9-1-13 cells. […] Anti-Fas antibody was therefore chosen as a preferred inducer of apoptosis for high-throughput screening.
as §3

IMR-32 cells [4] = experiment: Microscopic examination of SYTO 13 / propidium iodide stained IMR-32 cells; format: cell-based; details: etoposide
Text: as §1, with “IMR-32 cells were treated with Actinomycin D (ActD), cycloheximide (CHX), etoposide or staurosporin for 4-8 hrs.” left out
Morphologic Markers of Apoptosis: Microscopic markers of apoptosis include membrane blebbing, cell shrinkage (i.e., cytoplasmic condensation) and condensed (dense) chromosomal nuclear materials (i.e., pyknosis).

IMR-32 cells [5] = format: cell-based
Method: as §1
DNA Fragmentation ELISA: Apoptosis-induced inter-nucleosomal fragmentation of chromosomal DNA was quantified using the “Cell Death Detection ELISA^PLUS” (Boehringer Mannheim) according to the manufacturer's instructions. Briefly, ˜10^4 cells/well were plated on a poly-D-lysine-coated 96-well plate and treated for various periods of times with different apoptosis-inducing agents. The cells were lysed and the nuclei and membranes were pelleted. An aliquot of the cytoplasm-containing supernatant was then transferred to a streptavidin-coated microtiter plate and incubated with anti-histone-biotin and anti-DNA-peroxidase, resulting in the formation of “sandwich” antibody complexes, i.e., (anti-DNA-peroxidase)-(nucleosomal-DNA-containing-histone) -(anti-histone-biotin)-(streptavidin-microtiter plate). Unbound antibody was removed by washing. Peroxidase substrate (i.e., ABTS) was added and nucleosomal DNA complexes quantified by spectrophotometric analysis of the colored peroxidase reaction product.
as §2

caspase-3 [6] = experiment: Caspase-3 assay in SAT-reporter-transformed HEK293 cells after apoptosis inducers; format: cell-based, human; details: 100-200 μM etoposide, 4, 5, 8 or 24 hrs.
F1-1-42 cells = experiment: Staurosporin-induced apoptosis in F1-1-42 SAT FRET reporter cells (FRET signal, western blot, caspase-3, morphology); format: cell-based, human; details: 100 μM added 30 min prior to staurosporin
Method: Detecting Intracellular Changes in a FRET Reporter in Cells Undergoing Apoptosis: Having established that SAT reporter protein synthesized in HEK293 cells could be cleaved ex vivo, i.e., in cell lysates by trypsin (above), an initial in vivo intracellular assay was conducted using the selected F1-1-42 clonal cell line and staurosporin to induce apoptosis. […] In these experiments the F1-1-42 cells were plated at a density of 4×10^5 cells/0.5 ml in each well of a 24-well microtiter plate. After overnight incubation, apoptosis was induced by adding staurosporin to a final concentration of 5 μM, and using vehicle (0.25% DMSO) as a negative control. Assays for caspase-3 were used to confirm that apoptosis was induced. […] Subsequent testing determined that significant changes in FRET signal were first detectable at about 8 hours after addition of staurosporin and were maximal by 24 hrs post-induction.

[7] = 50 μM etoposide phosphate, 2, 8, 17 or 24 hrs.

Cc1c2oc3c(C)ccc(C(=O)N[C@@H]4C(=O)N[C@H](C(C)C)C(=O)N5CCC[C@H]5C(=O)N(C)CC(=O)N(C)[C@@H](C(C)C)C(=O)O[C@@H]4C)c3nc-2c(C(=O)N[C@@H]2C(=O)N[C@H](C(C)C)C(=O)N3CCC[C@H]3C(=O)N(C)CC(=O)N(C)[C@@H](C(C)C)C(=O)O[C@@H]2C)c(N)c1=O [ActD, Actinomycin D] (I: T[dV]P[Sar][NMeV] / II: T[dV]P[Sar][NMeV]; ester I:1-I:C, II:1-II:C; linker I:N-II:N via Actinocin(9to1))
programmed cell death as measured by Cell Death Detection (IMR-32 cells [1]): about 30%

C[C@@H]1C[C@@H]([C@H](O)CC2CC(=O)NC(=O)C2)C(=O)[C@@H](C)C1 [CHX, cycloheximide]
programmed cell death as measured by Cell Death Detection (IMR-32 cells [1]): about 50%

COc1cccc2c1C(=O)c1c(O)c3c(c(O)c1C2=O)C[C@@](O)(C(=O)CO)C[C@@H]3O[C@H]1C[C@H](N)[C@H](O)[C@H](C)O1 [Doxorubicin]
increase in caspase-3 activity (caspase-3 [2]; 5 μM): did not produce any increase in caspase-3 activity

CCCCCCCCCCCCC/C=C/[C@@H](O)[C@H](CO)NC(C)=O [c2-ceramide]
FRET signal change (F9-1-13 cells; 75 μM, 16-24 hours): Only a small reduction in the FRET signal
caspase-3 activity change (caspase-3 [3]): Only a small reduction in the FRET signal and increase in caspase-3 activity

COc1cc([C@@H]2c3cc4c(cc3[C@@H](O[C@@H]3O[C@@H]5CO[C@@H](C)O[C@H]5[C@H](O)[C@H]3O)[C@H]3COC(=O)[C@H]23)OCO4)cc(OC)c1O [etoposide]
cell survival by SYTO 13 staining in comparison with untreated controls (IMR-32 cells [1]; [7]): a decrease in cell survival over 24 hrs.
cells surviving (SYTO 13 assay) (IMR-32 cells [1]; 8 hr): 55%
cells surviving (SYTO 13 assay) (IMR-32 cells [1]; 24 hrs): 30%
programmed cell death as measured by Cell Death Detection (IMR-32 cells [1]): about 50%
attached cells obviously dead (IMR-32 cells [4]; 8 hrs.): none were obviously dead
attached cells with condensed nuclei and membrane blebbing (IMR-32 cells [4]; 8 hrs.): about 50%
attached cells clearly dead (IMR-32 cells [4]; 24 hrs.): about 15%
attached cells showing apoptotic morphology (IMR-32 cells [4]; 24 hrs.): about 75%
increase in caspase-3 activity (caspase-3 [2]; confluent IMR-32, 100 μM etoposide, 8 hr.): ~5 fold
induction of caspase-3-like activity (caspase-3 [2]; etoposide 50-100 μM): ~10 fold
time at which DNA fragmentation reached a maximal value (IMR-32 cells [5]; 50 μM etoposide): 8 h
measured apoptotic DNA fragmentation (IMR-32 cells [5]; [7]): an increase in measured apoptotic DNA fragmentation
DNA fragmentation as determined by ELISA, dose dependence (IMR-32 cells [5]; 4-8 hrs. treatment): dose-dependent changes
change in caspase-3 activity (caspase-3 [6]): no change was observed; also recorded: showed no effect

Z-DEVD-fmk
effect on cleavage of SAT reporter in cell extracts (western blot) (F1-1-42 cells): markedly less cleavage of SAT reporter
effect on morphologic signs of apoptosis (F1-1-42 cells): reduced morphologic signs of apoptosis
effect on staurosporin-induced FRET signal change (F1-1-42 cells): marked reduction in the FRET signal change

Z-VAD-fmk
mean FRET signal greater than in the staurosporine treatment group (F9-1-13 cells; 50-100 μM Z-VAD-fmk, 5 μM staurosporine, overnight, 96-well, P<0.001): ~65%
